The values that follow come from PubChem BioAssay (NCI).

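The compound was tested at five concentrations on cells cultured in 96-well plates, with a 48-hour exposure period. Abbreviation: GI50, concentration required for 50% inhibition of growth. Definition used: TGI = concentration required for complete inhibition of growth.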 Bounds are passed on as bounds.

Holding throughout (experiment): inhibition of tumour cell growth, NCI panel, 48 h
Assay [1] has as its system RPMI-8226 leukemia.
Assay [2] relates to HS 578T breast.
Assay [3] relates to BT-549 breast.
Assay [4] deals with U251 CNS.
The subject of assay [5] is HT29 colon.
Assay [6] deals with M14 melanoma.
For assay [7], the system named is UO-31 renal.

As to `COc1cccc(N2C(=O)C3c4[nH]c5ccccc5c4C4CCCC4C3C2=O)c1` (stereo not drawn), the TGI in assay [1] was above 10 µM; in assay [2], 8.91 µM; in assay [3] it was above 10 µM; in assay [4], above 10 µM; in assay [5], above 10 µM; in assay [6], above 10 µM.

On to `O=C1c2cc3c(cc2[C@@H]2[C@H]1c1ccc([N+](=O)[O-])cc1C(=O)N2CCCBr)OCO3`, for which the GI50 in assay [2] was 0.381 µM; in assay [7], below 0.01 µM; in assay [3], below 0.01 µM; in assay [4], below 0.01 µM; in assay [5], below 0.01 µM; in assay [6], below 0.01 µM. Also, the TGI in assay [2] is 11.5 µM; in assay [7], above 100 µM; in assay [3] it was 0.411 µM; in assay [5] it was above 100 µM; in assay [6] it was 0.318 µM.

On to `O=C1NNC2(C(=O)N1)c1ccccc1-c1ccccc12`, for which the TGI in assay [1], in assay [2], in assay [7], in assay [3], in assay [5] and in assay [6] was above 10 µM throughout.

As to `COc1cc2nc(N3CCCC3)nc(NCc3ccccc3)c2cc1OC`, the GI50 is 2.44 µM in assay [1]; 1.99 µM in assay [2]; 1.38 µM in assay [7]; 3.52 µM in assay [3]; 1.88 µM in assay [4]; 2.29 µM in assay [5]. Further, the GI50 in assay [6] is 1.81 µM. The TGI in assay [1] came out at 5.99 µM; in assay [2] it was 4.5 µM; in assay [7] it was 3.21 µM; in assay [3], 13.4 µM; in assay [4] it was 3.92 µM; in assay [5] it was 7.29 µM. In addition, the TGI in assay [6] was found to be 3.49 µM.

Turning to `C=C(C(N)=O)c1ccc([N+](=O)[O-])o1`, the TGI was determined as 77.1 µM in assay [2], 34.6 µM in assay [4], 30.6 µM in assay [5] and 8.65 µM in assay [6].

Consider `Cc1ccccc1OCC(O)CN1CCN(c2ccc(Cl)cc2)CC1` (stereo not drawn), for which the GI50 in assay [1] is 16.3 µM; in assay [2], 21.4 µM; in assay [7], 6.75 µM; in assay [3], 18.3 µM; in assay [4], 18.7 µM; in assay [5], 14.5 µM. The GI50 in assay [6] was 17 µM. Besides, the TGI is 40.8 µM in assay [1]; 68.7 µM in assay [2]; 20.8 µM in assay [7]; 33.3 µM in assay [3]; 33.7 µM in assay [4]; 29.2 µM in assay [5]. In assay [6], this compound showed a TGI of 34.6 µM.

For the compound `CCOC(=O)CCC(NC(=O)OCc1ccccc1)C(=O)NC(CCC(=O)OCC)C(=O)NC(CCC(=O)OCC)C(=O)NC(CCC(=O)OCC)C(=O)NC(CCC(=O)OCC)C(=O)NC(CCC(=O)OCC)C(=O)NC(CCC(=O)OCC)C(=O)OCC` (stereo not drawn), the TGI in assay [1], in assay [7], in assay [3], in assay [4], in assay [5] and in assay [6] was above 100 µM each time.

Consider `COc1ccc(CCN2CC=Cn3c2nc2ccccc2c3=O)cc1`, for which the GI50 in assay [1] was 0.0415 µM; in assay [2], 0.0329 µM; in assay [7] it was 0.0683 µM; in assay [3] it was 0.0611 µM; in assay [4] it was 0.0368 µM; in assay [5], 0.0319 µM. Also, the TGI in assay [1] was 43 µM; in assay [2], 77.4 µM; in assay [7], above 100 µM; in assay [3] it was 15.5 µM; in assay [4], above 100 µM; in assay [5] it was 27.4 µM.

As for `C/C(=N/NC(=S)N1CCCCC1)c1ccccc1O`, the TGI in assay [1] is above 31.6 µM; in assay [2] it was above 31.6 µM; in assay [7], above 31.6 µM; in assay [3] it was above 100 µM; in assay [4] it was above 31.6 µM; in assay [5], above 31.6 µM. The compound further showed a TGI in assay [6] above 31.6 µM.

In the case of `Cc1cc(NCCCN(C)C)c2ccc3c(ccc4c(NCCCN(C)C)cc(C)nc43)c2n1`, the GI50 in assay [1] was 0.0489 µM; in assay [2], 0.197 µM; in assay [7], 0.231 µM; in assay [3], 1.85 µM; in assay [4], 0.199 µM; in assay [5] it was 0.149 µM. In addition, the GI50 in assay [6] was 0.194 µM. The TGI in assay [1] amounted to 0.147 µM; in assay [2], 0.667 µM; in assay [7], 0.557 µM; in assay [3], 3.53 µM; in assay [4], 0.541 µM; in assay [5], 0.503 µM. Besides, the TGI in assay [6] stood at 0.397 µM.

As to `Cc1ccc(S(=O)(=O)c2c(COC(=O)c3cccc(C)c3)c(-c3ccccc3)nn2C)cc1`, the GI50 in assay [1], in assay [2], in assay [7], in assay [3], in assay [4] and in assay [5] was above 100 µM throughout. Moreover, in assay [6], the GI50 is above 100 µM. The TGI in assay [1], in assay [2], in assay [7], in assay [3], in assay [4] and in assay [5] was above 100 µM each time. This compound had a TGI in assay [6] above 100 µM.

Consider `COc1cc(OC)c2nc(C)c3c(c2c1)SCC3`, for which the TGI in assay [1] was 64.4 µM; in assay [2], 57.7 µM; in assay [7], 48.8 µM; in assay [4], 55.9 µM; in assay [5] it was 99.4 µM; in assay [6] it was above 100 µM.

Take `CC1=C(c2cccc(O)c2)[C@H](c2ccc(OCCN3CC(CF)C3)cc2)Oc2ccc(O)cc21`: the GI50 in assay [1] is 8.11 µM; in assay [2], 5.12 µM; in assay [7], 3.56 µM; in assay [3], 10.5 µM; in assay [4], 4.19 µM; in assay [5], 3.52 µM. In assay [6], the GI50 is 2.93 µM. The TGI in assay [1] was found to be 27.1 µM; in assay [2], 26.4 µM; in assay [7], 16 µM; in assay [3], 23.2 µM; in assay [4] it was 18.1 µM; in assay [5] it was 12.8 µM. In assay [6], the TGI amounted to 9.45 µM.

Turning to `NCCCC[C@@H]1NC(=O)[C@H]2CCCN2C(=O)[C@H](Cc2ccccc2)CNC(=O)[C@H](Cc2ccccc2)NC1=O`, the GI50 in assay [1], in assay [2], in assay [7], in assay [3], in assay [4] and in assay [5] was above 37.5 µM each time. The GI50 in assay [6] is above 37.5 µM. For the same compound, the TGI in assay [1], in assay [2], in assay [7], in assay [3], in assay [4] and in assay [5] was above 37.5 µM in each case. The compound further yielded a TGI in assay [6] above 37.5 µM.

Consider `Cc1cc2c(C(C)C)c(O)c(O)cc2c(O)c1-c1c(C)cc2c(C(C)C)c(O)c(O)cc2c1O`, for which the GI50 in assay [1] was 13.1 µM; in assay [2], 19.3 µM; in assay [7] it was 14.9 µM; in assay [3], 14.4 µM; in assay [4] it was 4.16 µM; in assay [5], 20.1 µM. Also, in assay [6], the GI50 was 12.3 µM. The TGI in assay [1] was 39.3 µM; in assay [2] it was 47.6 µM; in assay [7], 29.1 µM; in assay [3], 41.2 µM; in assay [4], 14.5 µM; in assay [5] it was 39.6 µM. In addition, the TGI in assay [6] is 27.6 µM.

In the case of `COc1ccc2c(c1)c(CC(=O)[Se]C)c(C)n2C(=O)c1ccc(Cl)cc1`, the GI50 in assay [1] is above 0.542 µM; in assay [2] it was above 0.297 µM; in assay [4] it was above 0.326 µM; in assay [5] it was above 0.223 µM. The TGI in assay [1] was above 0.942 µM; in assay [2] it was above 0.942 µM; in assay [7], above 0.523 µM; in assay [4], above 0.573 µM; in assay [5], above 1 µM; in assay [6] it was above 0.34 µM.

As to `C#CC#CC#CC#CC#CC#CC#CC#CCC1OCC(COC(=O)O[C@@H](C(=O)O[C@H]2C[C@@]3(O)[C@@H](OC(=O)c4ccccc4)[C@@H]4[C@]5(OC(C)=O)CO[C@@H]5C[C@H](O)[C@@]4(C)C(=O)[C@H](OC(C)=O)C(=C2C)C3(C)C)[C@@H](NC(=O)c2ccccc2)c2ccccc2)O1` (stereo partly drawn), the GI50 is 0.0472 µM in assay [1]; 0.108 µM in assay [2]; above 33.3 µM in assay [7]; 0.586 µM in assay [3]; 0.162 µM in assay [4]; 0.0387 µM in assay [5]. In assay [6], the GI50 is 0.16 µM. In addition, the TGI in assay [1], in assay [7], in assay [3], in assay [4] and in assay [5] was above 33.3 µM throughout.

In the case of `COc1cc(C(=O)c2c(-c3ccccc3)oc3c(OC)cccc23)cc(OC)c1OC`, the GI50 in assay [1] is 0.112 µM; in assay [2] it was 0.0984 µM; in assay [7], 0.119 µM; in assay [3], 0.154 µM; in assay [4], 0.0514 µM; in assay [5], 0.0491 µM. The TGI was above 100 µM in assay [1]; above 24.1 µM in assay [2]; above 100 µM in assay [7]; 1.5 µM in assay [3]; above 100 µM in assay [4]; above 100 µM in assay [5].

With `Cc1[nH]c2ccccc2c1CCCO`, the GI50 was above 100 µM in assay [1]; 54.9 µM in assay [2]; 75.2 µM in assay [7]; above 100 µM in assay [3]; above 100 µM in assay [4]; above 100 µM in assay [5]. In assay [6], the GI50 is above 100 µM. In addition, the TGI in assay [1], in assay [2], in assay [7], in assay [3], in assay [4] and in assay [5] was above 100 µM throughout. In addition, the TGI in assay [6] is above 100 µM.

In the case of `CC1(C)CC(O)C(C)(C)[C@@H](O)C1` (stereo partly drawn), the TGI in assay [2], in assay [7], in assay [3], in assay [4], in assay [5] and in assay [6] was above 100 µM in each case.

With `CC1CCC/C1=C(/I)C(=O)c1ccccc1` (stereo not drawn), the TGI in assay [1], in assay [2], in assay [7], in assay [4], in assay [5] and in assay [6] was above 100 µM in each case.

For the compound `COc1cc2c(cc1OC)[C@H](C)N1CCc3cc(OC)c(OC)cc3[C@@H]1C2`, the TGI in assay [1], in assay [2], in assay [7], in assay [3], in assay [4] and in assay [5] was above 100 µM throughout.

Turning to `COc1ccc(C/C(C)=C(/c2ccc(OCCN3CCCCC3)cc2)c2ccc(OC(=O)NCc3ccccc3)cc2)cc1`, the GI50 in assay [1] is 0.399 µM; in assay [7], 0.34 µM; in assay [3], 0.379 µM; in assay [4] it was 0.403 µM; in assay [5] it was 0.385 µM; in assay [6], 0.344 µM. Also, the TGI in assay [1] amounted to 0.963 µM; in assay [7], 0.669 µM; in assay [3] it was 0.763 µM; in assay [4], 0.791 µM; in assay [5] it was 0.841 µM; in assay [6], 0.731 µM.

As for `O=C1NC(Nc2ccccc2)=NC(C(F)(F)F)(C(F)(F)F)N1`, the TGI was above 100 µM in assay [1]; above 100 µM in assay [2]; above 100 µM in assay [7]; 87.9 µM in assay [4]; above 100 µM in assay [5]; 83.5 µM in assay [6].

With `O=C(Nc1ccc(Br)cc1F)c1cc(I)ccc1O`, the GI50 is 2.43 µM in assay [2]; 1.52 µM in assay [7]; 2.26 µM in assay [3]; 2.67 µM in assay [4]; 16.9 µM in assay [5]; 2.88 µM in assay [6]. The TGI in assay [2] is 9.1 µM; in assay [7] it was 7.51 µM; in assay [3], 6.43 µM; in assay [4], above 100 µM; in assay [5] it was 78.3 µM; in assay [6], 13.1 µM.

In the case of `C[C@@H]1[C@H](C)N1CC(O)Cn1ccnc1[N+](=O)[O-]` (stereo partly drawn), the TGI in assay [2], in assay [7], in assay [4], in assay [5] and in assay [6] was above 100 µM in each case.

For `CC(=O)N1CC(C)(C)c2c(C)c(O)c(C)c(C)c21`, the TGI in assay [1], in assay [2], in assay [7], in assay [4], in assay [5] and in assay [6] was above 100 µM each time.
